Results published in the supplement of paper PMC10307832.

Columns and labels:
Assay in all cases: relative viability (nuclei count vs DMSO), 5 days (fraction); higher = more cells survive
Trametinib + Bortezomib = compound: CC(=O)Nc1cccc(-n2c(=O)n(C3CC3)c(=O)c3c(Nc4ccc(I)cc4F)n(C)c(=O)c(C)c32)c1 [Trametinib] + CC(C)C[C@H](NC(=O)[C@H](Cc1ccccc1)NC(=O)c1cnccn1)B(O)O [Bortezomib] (partner 0.002 µM)
How it was run: (§1)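 A single step with final 0.05% Triton X-100, 1% formaldehyde and 1 ug/ml Hoechst fixed the cells and stained nuclei 5 days after treatment. Lung cancer cell lines in 1536-well plates had been treated by pin tool the day after seeding with one drug alone or a fixed anchor-drug dose plus five library-drug doses (not always all listed) in √10 steps, and nuclei were counted on 4× images. Relative viability is the ratio of nuclei in treated wells to nuclei in vehicle wells, taken as the median of duplicate plates.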

[1] = compound: CN1C=C(C2=CC=CC=C21)/C=C\3/C4=C(C=CC=N4)NC3=O + CC1(C)CCC(c2ccc(Cl)cc2)=C(CN2CCN(c3ccc(C(=O)NS(=O)(=O)c4ccc(N[C@H](CCN5CCOCC5)CSc5ccccc5)c(S(=O)(=O)C(F)(F)F)c4)cc3)CC2)C1 [Navitoclax] (partner 0.5 µM)
How it was run: as §1

[2] = compound: CN1C=C(C2=CC=CC=C21)/C=C\3/C4=C(C=CC=N4)NC3=O + Cc1cc(Nc2cc(N3CCN(C)CC3)nc(Sc3ccc(NC(=O)C4CC4)cc3)n2)n[nH]1 [Tozasertib] (partner 0.1 µM)
How it was run: as §1

Row | Cell Line | relative viability (Trametinib + Bortezomib; first compound 0.0025 µM) | relative viability (Trametinib + Bortezomib; first compound 0.007906 µM) | relative viability (Trametinib + Bortezomib; first compound 0.07906 µM) | relative viability (Trametinib + Bortezomib; first compound 0.25 µM) | relative viability ([1]; first compound 0.02 µM) | relative viability ([1]; first compound 0.06325 µM) | relative viability ([1]; first compound 0.2 µM) | relative viability ([1]; first compound 0.6325 µM) | relative viability ([1]; first compound 2 µM) | relative viability ([2]; first compound 0.02 µM) | relative viability ([2]; first compound 0.06325 µM) | relative viability ([2]; first compound 0.2 µM) | relative viability ([2]; first compound 0.6325 µM) | relative viability ([2]; first compound 2 µM) | relative viability (Trametinib + Bortezomib; first compound 0.025 µM)
1 | BEN | 0.76 | 0.725 | 0.531 | 0.657 | 0.0672 | 0.0704 | 0.0656 | 0.0636 | 0.0694 | 0.475 | 0.445 | 0.443 | 0.634 | 0.761 | 
2 | NCI-H2009 | 0.929 | 0.67 | 0.332 | 0.195 | 1.11 | 1.12 | 1.2 | 1.24 | 1.24 | 0.73 | 0.613 | 0.741 | 0.859 | 0.831 | 0.3
3 | LC-2-ad | 0.999 | 0.898 | 0.713 | 0.443 | 0.412 | 0.304 | 0.439 | 0.412 | 0.389 | 0.43 | 0.435 | 0.482 | 0.453 | 0.492 | 0.928
4 | NCI-H1437 | 0.463 | 0.257 | 0.205 | 0.174 | 1.08 | 1.08 | 1.18 | 1.18 | 1.19 | 0.39 | 0.427 | 0.417 | 0.438 | 0.463 | 0.179
5 | NCI-H3122 | 0.985 | 0.74 | 0.432 | 0.361 | 0.907 | 1.01 | 0.989 | 1.11 | 1.06 | 0.37 | 0.343 |  | 0.398 | 0.49 | 0.595
6 | NCI-H727 | 0.663 | 0.422 | 0.257 | 0.277 | 0.396 | 0.349 | 0.385 | 0.372 | 0.4 | 0.554 | 0.447 | 0.59 | 0.636 | 0.633 | 0.272
7 | NCI-H1734 | 0.901 | 0.987 | 0.734 | 0.349 | 0.817 | 0.82 |  | 0.798 | 0.83 | 0.281 | 0.311 |  | 0.295 | 0.284 | 
8 | HCC-15 | 0.946 | 0.62 | 0.492 | 0.203 | 0.763 | 0.689 | 0.736 | 0.559 | 0.665 | 0.322 | 0.406 | 0.493 | 0.346 | 0.531 | 0.731
9 | NCI-H2405 | 0.999 | 0.909 | 0.597 | 0.508 | 0.891 | 0.803 | 0.65 | 1.1 | 0.732 | 0.742 | 0.717 | 0.67 | 0.721 | 0.731 | 0.657
10 | NCI-H1993 | 0.861 | 0.834 | 0.48 | 0.596 | 0.726 | 0.768 | 0.894 | 0.682 | 0.856 | 0.565 | 0.565 | 0.552 | 0.652 | 0.559 | 0.558
11 | NCI-H1650 | 0.218 | 0.19 | 0.198 | 0.188 | 0.901 | 0.984 | 0.927 | 0.918 | 1.19 | 0.41 | 0.366 | 0.454 | 0.334 | 0.35 | 0.182
12 | NCI-H460 | 1.03 | 0.82 | 0.346 | 0.043 | 1.27 | 1.21 | 1.39 |  | 1.43 | 0.458 | 0.403 | 0.448 | 0.363 | 0.0797 | 0.544
13 | NCI-H1651 | 0.967 | 0.9 | 0.83 | 0.43 | 0.955 | 0.969 | 1.24 | 1.05 | 1.15 | 0.799 | 0.673 | 0.664 | 0.698 | 0.728 | 0.801
14 | NCI-H1975 | 0.303 | 0.224 | 0.173 | 0.169 | 0.955 | 1.05 | 1.07 | 0.937 | 0.94 | 0.688 | 0.753 | 0.641 | 0.42 | 0.245 | 0.206
15 | NCI-H2126 | 1.11 | 0.956 | 0.983 | 0.769 | 0.789 | 0.824 | 0.833 | 0.859 | 0.8 | 0.85 | 0.756 | 0.807 | 0.807 | 0.836 | 0.685
16 | 201T | 1.08 | 1.01 | 1.05 | 0.801 | 1.22 | 1.21 | 1.24 | 1.27 | 1.23 | 1 | 0.96 | 0.947 | 0.897 | 0.781 | 0.942
17 | HCC-78 | 0.399 | 0.404 | 0.395 | 0.332 | 0.692 | 0.71 | 0.589 | 0.778 | 0.758 | 0.386 | 0.424 |  | 0.271 | 0.426 | 0.4
18 | SK-LU-1 | 1.13 | 0.815 | 0.623 | 0.326 | 0.482 | 0.812 | 0.802 | 1 | 1.23 | 0.23 | 0.244 | 0.316 | 0.287 | 0.316 | 0.726
19 | H3255 | 0.814 | 0.769 | 0.42 | 0.344 | 0.547 | 0.484 | 0.422 | 0.439 | 0.425 | 0.739 | 0.624 | 0.847 | 0.638 | 0.866 | 0.597
20 | LOU-NH91 | 0.505 | 0.489 | 0.508 | 0.334 | 0.555 | 0.603 | 0.596 | 0.602 | 0.678 | 0.567 | 0.661 | 0.621 | 0.688 | 0.657 | 0.491
21 | NCI-H1666 | 0.639 | 0.591 | 0.452 | 0.401 | 1.19 | 0.883 | 0.879 | 0.761 | 0.542 | 0.596 | 0.546 | 0.61 | 0.609 | 0.603 | 0.499
22 | NCI-H2023 | 0.957 | 0.791 | 0.806 | 0.212 | 1.06 | 0.935 | 0.961 | 1.03 | 0.996 | 0.282 | 0.267 | 0.352 | 0.249 | 0.237 | 0.582
23 | COR-L 105 | 0.748 | 0.612 | 0.315 | 0.335 | 0.552 | 0.563 | 0.711 | 0.727 | 0.873 | 0.311 | 0.311 | 0.378 | 0.364 | 0.36 | 0.389
24 | NCI-H838 | 0.719 | 0.563 | 0.557 | 0.224 | 0.941 | 1.04 | 1.05 | 1.04 | 1.1 | 0.264 | 0.223 | 0.259 | 0.294 | 0.257 | 
25 | SW 1573 | 0.806 | 0.514 | 0.743 | 0.417 | 1.18 | 0.861 | 1.02 | 1.12 | 0.893 | 0.161 | 0.209 | 0.19 | 0.156 | 0.193 | 0.888
